The subject of the first assay is Aspergillus niger. Kind of assay: Antimicrobial test against Aspergillus niger. Format: cell-based. Particulars: 96 h, Vogel medium, 25° C., 4 days in the dark, turbidity at 405 nm, read-out: growth inhibition rate. The procedure: Spores of Aspergillus niger were added to and dispersed in a Vogel medium, and a dihydropyrimidine compound dissolved in dimethyl sulfoxide was added and mixed thereto at 25 ppm. The resulting solution was dispensed onto a 96-well microplate and cultivated in the dark at 25° C. for 4 days.
After the cultivation, the turbidity at a wavelength of 405 nm was measured by a microplate reader and compared with that in the untreated case to determine the growth inhibition of Aspergillus niger (%) was determined.
By inhibition is commonly meant the relative decrease from the control value, in per cent. For the compound `COc1ccccc1C(O)Cn1cc(/C(C)=N/OC(C)C)c(=O)n(C[C@H](CC(C)C)NC(=O)C(C)C)c1=O` (stereo partly drawn) [C-43], the inhibition at 25 ppm is at least 50%.
On the same count and under the same terms, as for `CC[C@@H](Cn1c(=O)c(/C(C)=N/OC(C)C)cn(CC(O)c2cc(F)ccc2OC)c1=O)NC(=O)C(C)(C)C` (stereo partly drawn) [C-58], the figure is at least 50%; as for `COc1ccc(F)cc1C(O)Cn1cc(/C(C)=N/OC(C)C)c(=O)n(C[C@H](CC(C)C)NC(=O)N(C)C)c1=O` (stereo partly drawn) [C-60], at least 50%; as for `CCC(=O)N[C@@H](CC(C)C)Cn1c(=O)c(/C(C)=N/OC(C)C)cn(CC(O)c2cc(F)ccc2OC)c1=O` (stereo partly drawn) [C-62], at least 50%.
For the compound `COc1ccc(F)cc1C(O)Cn1cc(/C(C)=N/OC(C)C)c(=O)n(C[C@@H](NC(=S)N(C)C)C(C)C)c1=O` (stereo partly drawn) [C-63], the inhibition at 25 ppm was at least 50%.
On the same count and under the same terms, as for `COc1ccc(F)cc1C(O)Cn1cc(/C(C)=N/OC(C)C)c(=O)n(C[C@@H](NC(=O)N(C)C)C(C)C)c1=O` (stereo partly drawn) [C-69], the figure is at least 50%; as for `COc1ccc(F)cc1C(O)Cn1cc(/C(C)=N/OC(C)C)c(=O)n(C[C@@H](NC(=O)CSC)C(C)C)c1=O` (stereo partly drawn) [C-75], at least 50%; as for `COc1ccccc1C(O)Cn1cc(/C(C)=N/OC(C)C)c(=O)n(C[C@@H](NC(=O)N(C)C)C(C)C)c1=O` (stereo partly drawn) [C-77], at least 50%.
The same measure, in the same setting: the same measure for `COc1ccccc1C(O)Cn1cc(/C(C)=N/OC(C)C)c(=O)n(C[C@@H](NC(=O)C2CCC2)C(C)C)c1=O` (stereo partly drawn) [C-79]: at least 50%.
In the case of `COc1ccc(F)cc1C(O)Cn1cc(/C(C)=N/OC(C)C)c(=O)n(C[C@@H](NC(=O)C(Cl)Cl)C(C)C)c1=O` (stereo partly drawn) [C-81], the inhibition at 25 ppm is at least 50%.
As for `COc1ccc(F)cc1C(O)Cn1cc(/C(C)=N/OC(C)C)c(=O)n(C[C@@H](NC(=O)C2CC2)C(C)C)c1=O` (stereo partly drawn) [C-103], the inhibition at 25 ppm is at least 50%.
Same read-out and setting: as for `C=CC(=O)N[C@H](Cn1c(=O)c(/C(C)=N/OC(C)C)cn(CC(O)c2cc(F)ccc2OC)c1=O)C(C)C` (stereo partly drawn) [C-109], the figure is at least 50%; as for `COc1ccc(F)cc1C(O)Cn1cc(/C(C)=N/OC(C)C)c(=O)n(C[C@H](C)NC(=O)CC(C)C)c1=O` (stereo partly drawn) [C-124], at least 50%; as for `COc1ccc(F)cc1C(O)Cn1cc(/C(C)=N/OC(C)C)c(=O)n(C[C@H](C)NC(=O)C(C)(C)C)c1=O` (stereo partly drawn) [C-126], at least 50%.
On the same count and under the same terms, the same measure for `COc1ccccc1C(O)Cn1cc(/C(C)=N/OC(C)C)c(=O)n(C[C@@H](NC(=O)C(C)(C)C)C(C)C)c1=O` (stereo partly drawn) [C-129]: at least 50%; for `CCC(=O)N[C@@H](C)Cn1c(=O)c(/C(C)=N/OC(C)C)cn(CC(O)c2cc(F)ccc2OC)c1=O` (stereo partly drawn) [C-137]: at least 50%; for `COc1ccc(F)cc1C(O)Cn1cc(/C(C)=N/OC(C)C)c(=O)n(C[C@H](C)NC(=O)C2CC2)c1=O` (stereo partly drawn) [C-141]: at least 50%.
For the compound `COc1ccc(F)cc1C(O)Cn1cc(/C(C)=N/OC(C)C)c(=O)n(C[C@H](Cc2ccccc2)NC(=O)C(C)C)c1=O` (stereo partly drawn) [C-168], the inhibition at 25 ppm was at least 50%.
`CC/C(=N\OC(C)C)c1cn(CC(O)c2cc(F)ccc2OC)c(=O)n(C[C@H](C)NC(=O)C(C)C)c1=O` (stereo partly drawn) [C-172]: the inhibition at 25 ppm was at least 50%.
Still for that read-out and setting: as for `COC(=O)N[C@@H](C)Cn1c(=O)c(/C(C)=N/OC(C)C)cn(CC(O)c2cc(F)ccc2OC)c1=O` (stereo partly drawn) [C-186], the figure is at least 50%.
In the case of `COc1ccc(F)cc1C(O)Cn1cc(/C(C)=N/OC(C)C)c(=O)n(C[C@H](C)NC(=O)OC(C)C)c1=O` (stereo partly drawn) [C-188], the inhibition at 25 ppm was at least 50%.
On to `C/C(=N\OC(C)C)c1cn(CC(O)c2ccccc2OC(F)(F)F)c(=O)n(C[C@H](C)NC(=O)C(C)C)c1=O` (stereo partly drawn) [C-194, N-((2S)-1-(3-(2-hydroxy-2-(2-(trifluoromethoxy)phenyl)ethyl)-5-((E)-1-(isopropoxyimino)ethyl)-2,6-dioxo-3,6-dihydropyrimidin-1(2H)-yl)propan-2-yl)isobutyramide], for which the inhibition at 25 ppm is at least 50%.
On the same count and under the same terms, as for `COc1ccc(F)cc1C(O)Cn1cc(/C(C)=N/OC(C)C)c(=O)n(C[C@@H](NC(=O)C(C)C)c2ccccc2)c1=O` (stereo partly drawn) [C-202], the figure is at least 50%; as for `C/C(=N\OC(C)C)c1cn(CC(O)c2ccccc2C)c(=O)n(C[C@H](C)NC(=O)C(C)C)c1=O` (stereo partly drawn) [C-213], at least 50%; as for `C=C(C)C(=O)N1CCC[C@H]1Cn1c(=O)c(/C(C)=N/OC(C)C)cn(CC(O)c2cc(F)ccc2OC)c1=O` (stereo partly drawn) [D-11], at least 50%.
Same read-out and setting: as for `COc1ccc(F)cc1C(O)Cn1cc(/C(C)=N/OC(C)C)c(=O)n(C[C@@H]2CCCN2C(=O)C(C)C)c1=O` (stereo partly drawn) [D-20], the figure is at least 50%.
On the same count and under the same terms, the same measure for `COc1ccc(F)cc1C(O)Cn1cc(/C(C)=N/OC(C)C)c(=O)n(C[C@@H]2CCCN2C(=O)N(C)C)c1=O` (stereo partly drawn) [D-22]: at least 50%; for `COc1ccc(Cn2c(=O)c(/C(C)=N/OC(C)C)cn(CC(O)c3cc(F)ccc3OC)c2=O)cc1` [D-52]: at least 50%; for `COc1cccc(Cn2c(=O)c(/C(C)=N/OC(C)C)cn(CC(O)c3cc(F)ccc3OC)c2=O)c1` [D-53]: at least 50%.
For the compound `COc1ccccc1Cn1c(=O)c(/C(C)=N/OC(C)C)cn(CC(O)c2cc(F)ccc2OC)c1=O` [D-54], the inhibition at 25 ppm is at least 50%.
In the case of `COc1ccc(F)cc1C(O)Cn1cc(/C(C)=N/OC(C)C)c(=O)n(Cc2ccccn2)c1=O` [D-56], the inhibition at 25 ppm was at least 50%.

Another assay concerns apple scab pathogen (Venturia inaequalis). Kind of assay: Apple scab control test. Format: in vivo. Particulars: 336 h, 125 ppm drug solution sprayed onto apple seedlings (Orin), lesion area ratio 2 weeks after inoculation. The method, then: 5 parts by weight of the dihydropyrimidine compound of the present invention, 93.5 parts by weight of N,N-dimethylformamide, and 1.5 parts by weight of polyoxyethylene sorbitan monolaurate (TWEEN® 20) were mixed and dissolved to obtain an emulsion (I) including 5% of an active ingredient.
The control value was calculated by the following expression. Control value (%)=100−{lesion area ratio in treated group/lesion area ratio in untreated group}×100 [Expression 1]
Water was added to the emulsion (I) such that the concentration of the dihydropyrimidine compound reached 125 ppm to dissolve the emulsion, and a drug solution was obtained. Subsequently, the drug solution was sprayed onto apple seedlings (variety: “Orin”, leaf stage: 3 to 4) cultivated in seedling pots. After air drying, the seedlings were inoculated with conidiospores of an apple scab pathogen (Venturia inaequalis) (treated group). As a control, apple seedlings that were not sprayed with the drug solution were inoculated in the same manner (untreated group). The seedlings were left to stand in a humidified room at 20° C. using a 12 hour light/dark cycle.
On the day 2 weeks after the inoculation, the leaves of the apple seedlings were visually observed to determine the lesion area ratio, and the control value was calculated.
Broadly, the pest or weed control is the degree to which the test organism was suppressed or injured, in per cent. Regarding `CCOC(=O)C(C)(C)Cn1c(=O)c(/C(C)=N/OC(C)C)cn(CC(=O)c2cc(F)ccc2OC)c1=O` [A-3], the pest or weed control at 125 ppm is at least 75%.
Still for that read-out and setting: as for `C=CCON=Cc1cn(CC(OCCC#N)c2cc(F)ccc2OC)c(=O)n(C(C)C(=O)NC(C)C)c1=O` (stereo not drawn) [A-5], the figure is at least 75%; as for `CON=Cc1cn(CC(OCCC#N)c2cc(F)ccc2OC)c(=O)n(C(C)C(=O)NC(C)C)c1=O` (stereo not drawn) [A-6], at least 75%; as for `CCON=Cc1cn(CC(O)c2cc(F)ccc2OC)c(=O)n(CC(C)(C)C(=O)NC(C)C)c1=O` (stereo not drawn) [A-8], at least 75%.
On to `COc1ccc(F)cc1C(Cn1cc(C=NOCC2CC2)c(=O)n(C(C)C(=O)NC(C)C)c1=O)OCCC#N` (stereo not drawn) [A-9], for which the pest or weed control at 125 ppm is at least 75%.
Still for that read-out and setting: the same measure for `CCON=Cc1cn(CC(OCCC#N)c2cc(F)ccc2OC)c(=O)n(CC(C)(C)C(=O)OCC)c1=O` (stereo not drawn) [A-13]: at least 75%; for `CCON=Cc1cn(CC(O)c2cc(F)ccc2OC)c(=O)n(CC(C)(C)C(=O)OCC)c1=O` (stereo not drawn) [A-15]: at least 75%; for `CCON=Cc1cn(CC(OCCC#N)c2cc(F)ccc2OC)c(=O)n(CCNC(=O)c2ccc(F)cc2)c1=O` (stereo not drawn) [A-16]: at least 75%.
The same measure, in the same setting: the same measure for `CCON=Cc1cn(CC(O)c2cc(F)ccc2OC)c(=O)n(CCNC(=O)OC(C)(C)C)c1=O` (stereo not drawn) [A-19]: at least 75%; for `CCON=Cc1cn(CC(=O)c2cc(F)ccc2OC)c(=O)n(CCNC(=O)OC(C)(C)C)c1=O` [A-20]: at least 75%; for `C#CCON=Cc1cn(CC(OCCC#N)c2cc(F)ccc2OC)c(=O)n(C(C)C(=O)NC(C)C)c1=O` (stereo not drawn) [A-21]: at least 75%.
Consider `COc1ccc(F)cc1C(Cn1cc(C=NOCC(F)(F)F)c(=O)n(C(C)C(=O)NC(C)C)c1=O)OCCC#N` (stereo not drawn) [A-22], for which the pest or weed control at 125 ppm is at least 75%.
Still for that read-out and setting: as for `CCO/N=C(\C)c1cn(CC(=O)c2cc(F)ccc2OC)c(=O)n(CC(C)(C)C(=O)NC(C)C)c1=O` [A-26], the figure is at least 75%.
For `CCO/N=C(\C)c1cn(CC(=O)c2cc(F)ccc2OC)c(=O)n(CCNC(=O)C(C)C)c1=O` [A-36, N-(2-(5-(1-(ethoxyimino)ethyl)-3-(2-(5-fluoro-2-methoxyphenyl)-2-oxoethyl)-2,6-dioxo-3,6-dihydropyrimidin-1(2H)-yl)ethyl)isobutyramide], the pest or weed control at 125 ppm was at least 75%.
Take `COc1cccc(C(O)Cn2cc(/C(C)=N/OC(C)C)c(=O)n(C[C@H](C)NC(=O)C(C)C)c2=O)c1` (stereo partly drawn) [A-40]: the pest or weed control at 125 ppm was at least 75%.
Still for that read-out and setting: the same measure for `CCO/N=C(\C)c1cn(/C=C(\OC(=O)C(C)C)c2cc(F)ccc2OC)c(=O)n(C2CCCC2NC(=O)C(C)C)c1=O` (stereo not drawn) [A-44]: at least 75%; for `COc1ccc(F)cc1C(Cn1cc(C=NOC(C)C)c(=O)n(C(C)C(=O)N2CCSCC2)c1=O)OCCC#N` (stereo not drawn) [A-67]: at least 75%; for `COc1ccc(F)cc1C(O)Cn1cc(C=NOC(C)C)c(=O)n(C(C)C(=O)N2CCSCC2)c1=O` (stereo not drawn) [A-72]: at least 75%.
`COc1ccc(F)cc1C(O)Cn1cc(/C=N\OC(C)C)c(=O)n(CC(=O)N2CCCCC2)c1=O` (stereo not drawn) [A-83]: the pest or weed control at 125 ppm was at least 75%.
Regarding `COc1ccc(F)cc1C(O)Cn1cc(C=NOC(C)C)c(=O)n(CC(=O)NC(C)C)c1=O` (stereo not drawn) [A-85], the pest or weed control at 125 ppm is at least 75%.
Take `COc1ccc(F)cc1C(O)Cn1cc(C=NOC(C)C)c(=O)n(C(C)C(=O)NC2CC2)c1=O` (stereo not drawn) [A-87]: the pest or weed control at 125 ppm was at least 75%.
On to `COc1ccc(F)cc1C(Cn1cc(C=NOC(C)(C)C)c(=O)n(C(C)C(=O)NC(C)C)c1=O)OCCC#N` (stereo not drawn) [A-98], for which the pest or weed control at 125 ppm was at least 75%.
Still for that read-out and setting: as for `CCON=Cc1cn(CCc2ccccc2OC)c(=O)n(C(C)C(=O)OCC)c1=O` (stereo not drawn) [A-103], the figure is at least 75%.
